Calls of active or inactive are those of the source.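 Rule for the calls: active = curve reaches 40% activation over neutral controls at an AC40 no higher than the top valid tested concentration; inconclusive = no clear call, values can overlap the other calls; inactive = signal moving opposite to the expected increase, and the rest.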
Test system: INS-1E GLuc insulin secretion reporter, luminescence, 2-3 h
Experiment: GLuc-reported insulin release enhancers, glucose-stimulated beta cells – cell-based, INS-1E, Gaussia luciferase, luminescence, cherry-pick, set 2, dose response (AID 977607)

Compound | AC40
CCCNC(=O)c1nnsc1S(=O)(=O)c1ccc(Cl)cc1 | 1.63 µM
Fc1cccc(CN2C[C@@H]3N[C@H](C2)[C@@H]3c2ccc(-c3cccc(F)c3)cc2)c1 | 3.93 µM
COc1ccc(-c2ccc(-c3noc(-c4ccco4)n3)c(OC)n2)cc1 | 7.71 µM
C=CCn1c(=NC(=O)c2cc(Cl)sc2Cl)sc2cc(S(N)(=O)=O)ccc21 | 5.55 µM
CC(C)(C)S(=O)N1Cc2cc(C(=O)Nc3ccc(-c4ccccc4)cc3)nc(-c3cccc(-c4cccc(F)c4)c3)c2[C@@H]1CCO (stereo partly drawn) | 6.27 µM
COc1ccc(C2=Nn3c(nnc3-c3ccncc3)SC2)cc1OC | 13.3 µM
CC(C)(C)C1CCc2c(sc(NC(=O)c3cccs3)c2C(N)=O)C1 (stereo not drawn) | 18.3 µM
CCOC(=O)c1cn(-c2ccccc2)nc1-c1ccncc1 | 10.5 µM
CCCc1cc(-c2nc(-c3ccc(C)cc3)cs2)ccn1 | 10.2 µM
COc1ccc(Br)cc1C(=O)Nc1cccc(C)c1 | 11.6 µM
Cc1ccc(Oc2ncc(-c3ccc(Cl)cc3)cn2)cc1 | 6.86 µM
COc1ccc(/C=N/NC(=O)CCOc2ccccc2C)cc1OC | 7.01 µM
C=CCNc1nc(NCc2ccco2)nc(OCC)n1 | > 35 µM (inactive)
NC[C@H](Cc1ccccc1)NCCc1cc(C(F)(F)F)cc(C(F)(F)F)c1 | 14.9 µM
Clc1ccc(-c2ccnc(Oc3ccc4ccccc4c3)n2)cc1 | 8.45 µM
CCC(C)Sc1cccc(-c2nc3cnccn3c2NC2CCCCC2)c1 (stereo not drawn) | 5.37 µM
Fc1ccccc1-c1ccc(C2[C@@H]3CN(Cc4ccccc4)C[C@H]2N3)cc1 (stereo partly drawn) | 7.05 µM
NC(N)=N/N=C/c1ccc(OCc2ccccc2)c(OCc2ccccc2)c1 | 10.2 µM
COc1ccc(CN(C)C(=O)Cn2cc(C)c(=O)[nH]c2=O)cc1OC | > 35 µM (inactive)
COc1cccc(-c2cc(C(=O)Nc3cc(C)on3)no2)c1 | 19.2 µM
COc1ccc(/C=N/N(C(C)=O)c2nc(-c3ccc(C)cc3)cs2)cc1 | 0.895 µM
c1ccc(-c2nnc3n2-c2ccccc2SC3)cc1 | > 35 µM (inactive)

Compound | AC40
COc1ccc(S(=O)(=O)Nc2ccccc2OC)cc1N=Nc1c(O)[nH]c(=S)[nH]c1=O | 16.4 µM
COc1nc(-c2ccc(Cl)cc2)ccc1-c1noc(-c2ccco2)n1 | 19.5 µM
O=C1CC(Sc2nnc(-c3ccccc3)o2)C(=O)N1c1ccccc1 (stereo not drawn) | 12.1 µM
C=CCNC(=S)N/N=C/c1ccc(-c2cc(Cl)ccc2Cl)o1 | 5.15 µM
COc1ccc(Cn2c(=O)c3[nH]cnc3n(-c3ccccc3C)c2=O)cc1 | 10.4 µM
OC(c1ccccc1)(c1ccccc1)C1CCN(CCCOc2cccc(OC(F)(F)F)c2)CC1 | 5.24 µM
O=C1Nc2cnc(Cl)nc2Nc2ccccc21 | > 35 µM (inactive)
CCOC(=O)Cn1c(=NC(=O)c2nc3ccccc3s2)sc2cc(S(N)(=O)=O)ccc21 | 11.4 µM
CCOc1cc(/C=N/NC(=O)CCn2nc(C)cc2C)ccc1O | 8.04 µM
CCOCCCNC(=O)c1oc2ccc3c(c2c1C)C(O)CC(C)(C)O3 (stereo not drawn) | 5.92 µM
Cc1ccc(CC2(OCCN(C)C)CCC(C(C)(C)C)CC2)cc1 (stereo not drawn) | 13.9 µM
COc1ccc(CC(N)c2csc(NC(=O)Nc3ccc(C(C)C)cc3)n2)cc1 (stereo not drawn) | 6.81 µM
N#Cc1cccc(-c2ccc(C3[C@H]4CNC[C@@H]3N4Cc3cc(-c4ccccc4)on3)cc2)c1 (stereo partly drawn) | 12 µM
COc1ccc(-c2nnc3sc(-c4cccs4)nn23)cc1OC | 22 µM
COc1cc2cnc(-c3cccnc3)cc2cc1OC | 6.19 µM
CNc1ccc2ncc(-c3ccc(OC)c(OC)c3)n2n1 | 7.77 µM
NS(=O)(=O)c1ccc(NC(=O)COC(=O)c2cn(-c3ccccc3)nc2-c2ccc(F)cc2)cc1 | 4.82 µM
COc1ccc(NC(=O)c2sc3nc(N4CCOCC4)c4c(c3c2N)CC(C)(C)OC4)c(OC)c1 | 6.55 µM
COc1ccc(-c2nc(-c3cccnc3)no2)cc1OC | > 35 µM (inactive)
COc1ccccc1C(=O)Nc1c2c(nn1-c1cccc(C)c1C)CS(=O)(=O)C2 | 7.77 µM
CC(C)CC#Cc1ccc2c(c1)O[C@H](CN(C)C(=O)C1CCCCC1)[C@@H](C)CN([C@@H](C)CO)S2(=O)=O | 10.2 µM
Cc1nn(Cc2ccc(Cl)cc2Cl)c(Cl)c1C(=O)Nc1ccc(OC(F)F)cc1 | 6.5 µM

Compound | AC40
CCC(=NC(C)c1ccccc1)c1c(O)[nH]c(=O)[nH]c1=O (stereo not drawn) | 11.1 µM
COc1ccc(C(C)NCCC(c2ccc(OC(C)C)cc2)c2ccccc2OC)cc1 (stereo not drawn) | 7.95 µM
C/C(Cl)=C/CSc1nc2c(c(=O)[nH]c(=O)n2C)n1C(C)C | 20 µM
CNC[C@@H](Cc1ccccc1)NC[C@@H](CC1CCCCC1)NCCCc1ccccc1 | > 35 µM (inactive)
CCOc1cc(N2CCOCC2)c(OCC)cc1NC(=O)COC(=O)c1cc2ccccc2cc1O | 10.3 µM
Cc1ccccc1-c1ccc(C2[C@@H]3CN(S(=O)(=O)c4ccccc4C)C[C@H]2N3)cc1 (stereo partly drawn) | 9.88 µM
O=C(COc1ccccc1)Nc1sc2c(c1C(=O)NCc1cccnc1)CCCC2 | 13.1 µM
Cc1cc(Nc2ccc(Cl)cc2)nc(NCc2ccccc2)n1 | 9.24 µM
COc1ccc(CCN(C)C(=O)c2oc3ccccc3c2C)cc1OC | 7.06 µM
CCOC(=O)c1ccc(Nc2ncnc3ccc(C)cc23)cc1 | 12.4 µM
FC(F)(F)c1cc(CCN2CCNC[C@@H]2c2ccccc2)cc(C(F)(F)F)c1 | 6.96 µM
O=c1c2ccccc2sn1-c1ccccc1F | 3.87 µM
COc1ccc(CCNS(=O)(=O)c2cccc(C)c2)cc1OC | 2.46 µM
Cc1cccc(C(C)C)c1NC(=O)COC(=O)c1cccc(S(=O)(=O)N2CCc3ccccc3C2)c1 | 10.9 µM
COc1ccc(C2CC(=O)Nc3sc(=N)c4c(N)c(C#N)c(N)nc4c32)cc1OC (stereo not drawn) | 6.1 µM
CC1(C(=O)NS(=O)(=O)c2ccc(Cl)s2)CCN1C(=O)C1(c2ccccc2)CCCC1 (stereo not drawn) | 10.7 µM
Cn1c(=O)c(C(=O)NNC(=O)c2cccc(Cl)c2)c(O)c2ccccc21 | 7.02 µM
N#Cc1ccc(-c2ccc([C@@H]3[C@H]4CNC[C@@H]3N4Cc3cc(F)ccc3F)cc2)cc1 | 16 µM
COC(=O)C1=C(C)N(Cc2cccc(C(F)(F)F)c2)C(=NCc2ccc(OC)cc2)NC1c1cccc(Cl)c1 (stereo not drawn) | 9.96 µM
CCCNC(=O)Cn1sc2nc(C)cc(C)c2c1=O | 6.91 µM
O=C(Nc1ccc(Cl)c(Cl)c1)Nc1nc(-c2ccccc2)cs1 | 4.71 µM
CC(C)CSc1nc2c(c(=O)[nH]c(=O)n2C)n1CCc1ccccc1 | 8.81 µM

Compound | AC40
COc1ccc(C)c2sc(N(CCCN(C)C)C(=O)c3ccc(S(=O)(=O)N4CCc5ccccc5C4)cc3)nc12 | 3.95 µM
C/C(=N\NC(=O)c1cccc(Br)c1)c1ccc(Br)cc1 | 16.6 µM
O=C(N/N=C\c1ccc(CNS(=O)(=O)c2ccc(Cl)cc2)o1)C(=O)Nc1ccc(Oc2ccccc2)cc1 | 13.9 µM
CCOC(=O)c1c(C)n(-c2ccc(C)cc2)c2ccc(OCC(O)CN3CCN(C)CC3)cc12 (stereo not drawn) | 12.3 µM
O=C(N/N=C/c1ccco1)c1cc(-c2ccc3ccccc3c2)n[nH]1 | 4.19 µM
C=C(C)C1Cc2c(C)nn(-c3cccc4cccnc34)c2C1 (stereo not drawn) | 2.1 µM
Cc1ccc(OCC(=O)NC(=S)Nc2cccc(NC(=O)c3ccccc3)c2)cc1 | 11.3 µM
CC1(C(=O)NS(=O)(=O)c2ccc(C#N)cc2)CCN1C(=O)C1(c2ccccc2)CCCC1 (stereo not drawn) | > 35 µM (inactive)
N#Cc1c(-c2ccncc2)cc(-c2ccc(F)cc2)nc1N | 2.96 µM
CCCCNc1cc(Cl)nc(N)n1 | 7.24 µM
N#Cc1sc2nc(N3CCCCC3)c3c(c2c1N)CCCC3 | 28.6 µM
CCOc1ccc2nc(NCCNC(=O)Nc3ccccc3)c(C#N)cc2c1 | 5.63 µM
COc1ccc(CN2CCN(Cc3ccccc3F)CC2)cc1 | > 35 µM (inactive)
CC1(C(=O)NS(=O)(=O)c2ccccc2Cl)CCN1C(=O)C1(c2ccccc2)CCCC1 (stereo not drawn) | 19.3 µM
Cc1cccc(S(=O)(=O)N2CCCCN3[C@@H](CO)[C@@H](c4ccc(C#CC(C)C)cc4)[C@@H]3C2)c1 | 18.2 µM
CC(C)(C(=O)N1CCC1(C)C(=O)NS(=O)(=O)c1ccc(Br)cc1)c1ccccc1 (stereo not drawn) | 12.7 µM
COc1ccc(S(=O)(=O)N2CCc3ccccc3C2)cc1OC | 28.9 µM
CN(C)CCOc1ccc(-c2c(-c3ccsc3)sc3ccccc23)cc1 | 10.9 µM
NC(c1csc(Nc2ccc(C(F)(F)F)cn2)n1)C1CCCCC1 (stereo not drawn) | 9.81 µM
CC(=O)N(/N=C/c1cccc(C)c1)c1nc(-c2ccc(Br)cc2)cs1 | 5.72 µM
CC1CC1C(=O)Nc1cc(C(F)(F)F)ccc1N1CCOCC1 (stereo not drawn) | 1.46 µM
CCOC(=O)c1csc(-c2ccc(OC)c(OC)c2)n1 | 2.17 µM

Compound | AC40
COc1ccc(C2=NN(C(=O)c3ccco3)C(c3cccs3)C2)cc1OC (stereo not drawn) | 1.94 µM
COc1ccc(NC(=O)c2csc(C)c2)cc1OC | > 35 µM (inactive)
CC(C)(C)c1ccc(OCC(=O)Nc2ccc(-c3nc4cccnc4o3)cc2)cc1 | 9.2 µM
Cc1ccc(NC(=O)c2ccc(COc3ccc4c(c3)CCC4)cc2)c(C)c1 | 1.27 µM
COc1ccc(C(=O)Nc2ccc3c(c2)C(=O)c2ccccc2C3=O)cc1OC | 24.1 µM
COc1ccc(-c2ccc(SCc3ccccn3)nn2)cc1OC | 6.41 µM
COc1cccc(CN2C[C@@H]3N[C@H](C2)C3c2ccc(-c3ccccc3OC)cc2)c1 (stereo partly drawn) | 7.9 µM
COc1cc(CNCCc2ccccc2)cc(Cl)c1OCc1ccccc1 | 9.79 µM
OC(CNCCc1ccc(C(F)(F)F)cc1)COc1cccc2ccccc12 (stereo not drawn) | 4.54 µM
CCOc1ccc(-c2nnn(CC(=O)Nc3ccccc3OC)n2)cc1OCC | 2.04 µM
CCCCc1c(-c2ccccc2OC)ncn1C(C)c1ccc(Cl)cc1 (stereo not drawn) | 12.6 µM
CN(Cc1c(C(=O)N/N=C/c2ccccc2O)nnn1-c1nonc1N)C1CCCCC1 | 9.53 µM
N#Cc1cccc(-c2ccc([C@@H]3[C@@H]4CN(S(=O)(=O)c5ccc(-c6ccccc6)cc5)C[C@H]3N4)cc2)c1 | 3.49 µM
Cc1ccc(S(=O)(=O)N2C[C@@H]3N[C@H](C2)C3c2ccc(/C=C/c3ccccc3)cc2)cc1 (stereo partly drawn) | 7.9 µM
O=c1c2ccccc2sn1-c1ccc(F)cc1 | 7.1 µM
COc1ccc(Cc2nnc(NC(=O)Cc3cccs3)s2)cc1OC | 0.234 µM
OC(c1ccccc1)(c1ccccc1)C1CCN(CCCOc2ccc3c(c2)CCCC3)CC1 | 6.92 µM
COc1ccc(NC(=O)Cn2cnc3c(cnn3-c3ccc(C)c(C)c3)c2=O)c(OC)c1 | 5.6 µM
NS(=O)(=O)c1ccc(NC(=S)N2CCN(c3ccc(Cl)c(Cl)c3)CC2)cc1 | 9.46 µM
Cc1cc(C)c2oc(C(=O)Nc3ccc(S(=O)(=O)Nc4nccc(C)n4)cc3)cc(=O)c2c1 | 8.73 µM
